Assay results reported in patent US20070155687A1, “Methods and compositions for altering cell function” (Alltech, Inc., priority 2005, published 2007).

Legend:
Type in all cases: in vivo
Prohibitin (Phb) = test: Intestinal gene expression: Prohibitin; conditions: mouse intestine; diet 1 ppm Se, 100 days; vs selenium deficient; p<0.05
Source text: (§1) Animal Care. Male C57BL/6J mice were housed singly and started on the experimental diets described below immediately after weaning (21 days of age). The mice were maintained in the Shared Aging Rodent Facility at the William S. Middleton Memorial Veterans Administration Medical Center (Madison, Wis.). Temperature and humidity were maintained at constant levels. Room light was controlled to provide 12-hr cycles of light and dark.
(§2) Experimental diets were created by Harlan Teklad (Madison, Wis.). Selenium content of the diets was determined by Covance Inc. (Madison, Wis.). Five (5) animals were included in each of the following treatment groups: a diet deficient in selenium (SD); a diet supplemented with selenomethionine (SM, obtained from Sigma, St. Louis, Mo.) such that the final selenium content of the diet was one (1) part per million; a diet supplemented with sodium selenite (SS, Sigma) such that the final concentration of selenium in this diet was one (1) part per million; or a diet supplemented with the yeast selenium SEL-PLEX (SP, Alltech, Lexington, Ky), such that the final concentration of selenium in this diet was one (1) part per million. SEL-PLEX. […]
(§3) Tissue sample preparation and microarray analysis. […] For intestinal expression studies, the intestine was flushed twice with saline solution and small intestine was measured and divided in three equal segments. […]

Selenoprotein W (SelW) = test: Intestinal gene expression: Selenoprotein W; conditions: mouse intestine; diet 1 ppm Se, 100 days; vs selenium deficient
Source text: as §1, §2, §3

Glutathione Peroxidase 3 = test: Intestinal gene expression (microarray): Glutathione Peroxidase 3; conditions: mouse intestine; diet 1 ppm Se, 100 days; vs selenium deficient; all p < 0.01
Source text: as §1, §2, §3

calpain-5 = test: Expression level of calpain genes after selenium administration; conditions: signed change (+ up, − down); tissue not stated; * not explained
Description: Compositions and methods of the present invention were analyzed to determine if they were capable of altering the expression levels of calpain genes. Compositions comprising various forms of selenium (e.g., SeM, Sod-sel, and SEL-PLEX) were administered to subjects and the expression levels of calpain genes monitored. The expression level of calpain-5 was altered by treatment in the following ways: free selenomethionine (SM)+1.32*, Sod-sel−1.07, SEL-PLEX−1.44*.

selenoprotein N1 (Sepn1) = test: Intestinal gene expression: selenoprotein N1; conditions: mouse intestine; diet 1 ppm Se, 100 days; vs selenium deficient
Source text: as §1, §2, §3

[1] = tested on: Growth arrest and DNA-damage-inducible 45 gamma. (Gadd45g); test: Intestinal gene expression: Gadd45g; conditions: mouse intestine, diet 1 ppm Se, 100 days, vs selenium deficient, negative = down
Source text: as §1
Experimental diets were created by Harlan Teklad (Madison, Wis.). Selenium content of the diets was determined by Covance Inc. (Madison, Wis.). Five (5) animals were included in each of the following treatment groups: a diet deficient in selenium (SD); a diet supplemented with selenomethionine (SM, obtained from Sigma, St. Louis, Mo.) such that the final selenium content of the diet was one (1) part per million; a diet supplemented with sodium selenite (SS, Sigma) such that the final concentration of selenium in this diet was one (1) part per million; or a diet supplemented with the yeast selenium SEL-PLEX (SP, Alltech, Lexington, Ky), such that the final concentration of selenium in this diet was one (1) part per million. SEL-PLEX. Mice were provided with water and their respective diet ad libitum for 100 days. Diets were stored at the dark at 4° C. and fresh diet was added to feeder twice weekly.
Tissue sample preparation and microarray analysis. Mice were killed at 100 days of age by cervical dislocation. For intestinal expression studies, the intestine was flushed twice with saline solution and small intestine was measured and divided in three equal segments. A 3-cm region of the middle segment of the small intestine corresponding to the jejunum (˜300 mg of tissue) was cut and rinsed again with physiological saline to completely remove contents, flash frozen in liquid nitrogen and stored at −80° C. For brain (e.g., cerebral cortex) studies, the cerebral cortex was separated from the surrounding brain tissue and was flash frozen in liquid nitrogen and stored at −80° C. […]

Glutathione Peroxidase 1 = test: Intestinal gene expression (microarray): Glutathione Peroxidase 1; conditions: mouse intestine; diet 1 ppm Se, 100 days; vs selenium deficient; all p < 0.01
Source text: as §1, §2, §3

CORS-26 = test: Cerebral cortex gene expression: CORS-26; conditions: mouse cerebral cortex; diet 1 ppm Se, 100 days; vs selenium deficient
Source text: as §1, §2, §3

[2] = tested on: LIM homeobox protein 8 gene (Lhx8); test: Intestinal gene expression: Lhx8; conditions: mouse intestine; diet 1 ppm Se, 100 days; vs Se-deficient subjects
Source text: as §1, §2, §3

Neurogenin 3 (Neurog3) = test: Intestinal gene expression: Neurog3; conditions: mouse intestine; diet 1 ppm Se, 100 days; vs selenium deficient
Source text: as §1, §2, §3

[3] = tested on: transforming growth factor beta 2 (TGF-β2); test: Intestinal gene expression: TGF-β2; conditions: mouse intestine; diet 1 ppm Se, 100 days; compared to controls
Source text: as §1, §2, §3

[4] = tested on: type II iodothyronine deiodinase, (Dio2); test: Intestinal gene expression: Dio2; conditions: mouse intestine; diet 1 ppm Se, 100 days; vs selenium deficient
Source text: as §1, §2, §3

[5] = tested on: SelR (also known as Selenoprotein X1); test: Intestinal gene expression: SelR; conditions: mouse intestine; diet 1 ppm Se, 100 days; vs selenium deficient
Source text: as §1, §2, §3

[6] = tested on: Glutathione S-transferase, theta 2 (Gstt2); test: Intestinal gene expression: Gstt2; conditions: mouse intestine; diet 1 ppm Se, 100 days; vs Se-deficient diets; negative = down; NS = not significant
Source text: as §1, §2, §3

SOD1 = test: Intestinal gene expression: SOD1; conditions: mouse intestine; diet 1 ppm Se, 100 days; vs selenium deficient
Source text: as §1, §2, §3

[7] = tested on: Glutathione S-transferase, mu2 (Gstm2); test: Intestinal gene expression: Gstm2; conditions: mouse intestine; diet 1 ppm Se, 100 days; vs Se-deficient diets; negative = down; NS = not significant
Source text: as §1, §2, §3

[8] = tested on: Cu chaperone for SOD, (CCS); test: Intestinal gene expression: Cu chaperone for SOD; conditions: mouse intestine; diet 1 ppm Se, 100 days; vs selenium deficient
Source text: as §1, §2, §3

In the case of `C[Se]CC[C@H](N)C(=O)O` [SeM, selenomethionine], the “Prohibitin (Phb) expression, upregulated” value (Prohibitin (Phb)) is reported as 1.6 fold, the “Selenoprotein W (SelW) expression, upregulated” value (Selenoprotein W (SelW)) is reported as “not significantly altered” and the “fold change (FC) in Glutathione Peroxidase 3 gene expression” value (Glutathione Peroxidase 3) is reported as 4.6 fold. The “expression level of calpain-5 altered by treatment” value (calpain-5) was “+1.32”, the “selenoprotein N1 (Sepn1) expression level, increased” value (selenoprotein N1 (Sepn1)) was “not significantly affected” and the “FC Gadd45g expression” value [1] was “decreased expression”. The “FC Gadd45g expression” value ([1]; listed as SM) was −1.5 (p < 0.05) fold, the “fold change (FC) in Glutathione Peroxidase 1 gene expression” value (Glutathione Peroxidase 1) was 4.9 fold and the “CORS-26 expression, reduction in expression” value (CORS-26) was “no alteration”. For the same molecule, the “Lhx8 expression, upregulated” value [2] was “not significantly different”, the “Neurog3 expression, upregulated” value (Neurogenin 3 (Neurog3)) was “no significant alteration” and the “TGF-β2 expression, upregulated” value [3] was “not altered”. For the same molecule, the “Dio2 expression, down-regulation” value [4] was “no ability to alter the expression levels” and the “SelR gene expression, upregulated” value [5] was “not significantly affected”.

For `O=[Se](O)O` [Sod-sel, sodium selenite], the “FC Gstt2 expression” value [6] was −1.3 fold, the “enhanced expression of SOD1” value (SOD1) was 1.92 fold and the “Selenoprotein W (SelW) expression, upregulated” value (Selenoprotein W (SelW)) was 5.1 fold. The “fold change (FC) in Glutathione Peroxidase 3 gene expression” value (Glutathione Peroxidase 3) was 3.5 fold, the “FC Gadd45g expression” value ([1]; listed as SS) was −2.0 (p < 0.01) fold and the “FC Gstm2 expression” value [7] was −2.1 fold. For the same molecule, the “fold change (FC) in Glutathione Peroxidase 1 gene expression” value (Glutathione Peroxidase 1) was 4.1 fold, the “enhancement in the expression of the Cu chaperone for SOD (CCS)” value [8] was 1.28 fold and the “SelR gene expression, upregulated” value [5] was 1.3 fold.
